Tests used:
GPR176 = assay: Zebrafish morpholino knockdown of GPR (GPR176): blood circulation and intersegmental vessel morphology; format: in vivo; settings: 48 hpf
Excerpt: (§1) To assess gene function in zebrafish (Danio rario) angiogenesis, MOs directed against ETL, GPR (or GPR176) and their respective mismatch controls are microinjected into zebrafish at the 1-2 cell stage. Blood circulation through the intersegmental vessels (ISVs) is observed in live zebrafish at 48 hpf and morphology of ISVs in the tail at 48 hpf using Phy-V antibody staining is also examined as described (Seng W. L. et al., Angiogenesis. 2004; 7(3):243-53.). The sequence for the ETL morpholino is: […]. The sequence for the mismatch […] morpholino (small case letters indicate mismatches) is: GCAcGAcTTTgATTGGAcAACTcTG. The sequence for the GPR morpholino is: […]. The sequence for the mismatch […] morpholino (small case letters indicate mismatches) is: AGgTCTgCGCcTTATCCcCCTCgAT.
This effect is not seen in control MO injections.

ETL = assay: Zebrafish morpholino knockdown of ETL: blood circulation and intersegmental vessel morphology; format: in vivo
Excerpt: as §1
While transcriptional gene changes provide the basis for investigating ETL and GPR as regulators of vascular development, experiments are carried out to obtain functional evidence that ETL and GPR are involved in blood vessel growth and development. To accomplish this, a zebrafish model may be used with ETL or GPR morpholino oligos to reduce gene expression during vasculogenesis. […] This effect is not seen in control MO injections.

GPR MO: morpholino oligo directed against zebrafish GPR176, sequence AGCTCTCCGCGTTATCCGCCTCCAT (SEQ ID NO 19) (all phosphorodiamidate morpholino (PMO))
zebrafish affected (similar ISV phenotype as the 0.5 pmol dose) (GPR176; 0.25 pmol GPR MO): 37% | body morphology in live zebrafish (GPR176; 0.5 pmol GPR MO): slightly curved body morphology | zebrafish with abnormal connections and incomplete vessel formation of ISVs by immunostaining (GPR176; 0.5 pmol GPR MO, experiment 1): 76% | zebrafish with abnormal connections and incomplete vessel formation of ISVs by immunostaining (GPR176; 0.5 pmol GPR MO, experiment 2): 94% | blood circulation through the intersegmental vessels in live zebrafish (GPR176; 0.5 pmol GPR MO, versus mismatch control): visible circulatory defects

ETL MO: morpholino oligo directed against zebrafish ETL, sequence GCAGGAGTTTCATTGGAGAACTGTG (SEQ ID NO 17) (all phosphorodiamidate morpholino (PMO))
zebrafish affected (same ISV phenotype as the 0.5 pmol dose) (ETL; 0.25 pmol ETL MO, 48 hpf): 70% | zebrafish with abnormal connections and incomplete vessel formation of ISVs by immunostaining (ETL; 0.5 pmol ETL MO injected at 1-2 cell stage, 48 hpf): 100% | body morphology in live zebrafish (ETL; 0.5 pmol ETL MO, 48 hpf): slightly curved body morphology | blood circulation through the intersegmental vessels in live zebrafish (ETL; 0.5 pmol ETL MO, 48 hpf, versus mismatch control): visible circulatory defects | phenotype of knockdown in images (FIG. 7) (ETL; 48 hours post fertilization, versus mismatch control): retarded eye formation, edema in the brain and disrupted intersegmental vessel development and disrupted blood circulation

From patent publication US20090178145A1, “Methods and targets for identifying compounds for regulating angiogenesis” (The Procter & Gamble Company, priority 2005, published 2009)
